Measurements published in US20060058217A1, “Compositions and methods for treatment of ovarian cancer” (priority 2003, published 2006).

Assays:
[1] = tested on: spleen cells; assay: splenic cell yields after challenge with ID8 murine ovarian carcinoma cells; type: in vivo, C57BL6 mice
From the text: Normal C57BL6 mice were challenged with ID8 murine ovarian carcinoma cells (intraperitoneally) in the presence of control vehicle (diluent), antalarmin, T-cell stimulation with 2C11 antibody, or antalarmin plus T-cell stimulation. Ten days after challenge, spleen cells were harvested and T-cells were restimulated with either antibody to the T-cell receptor and co-receptor or ID8 tumor cells in the presence of antalarmin, antibody stimulation, or a combination of antalarmin plus antibodies to T-cell receptor and co-receptor. Six days later, cells were harvested and tested for splenic cell yields. […] Treatment with tumor cells plus antalarmin plus antibody stimulation in the in vivo priming phase, followed by restimulation with irradiated tumor cells in the presence of antalarmin, provided conditions also favorable for preventing spleen cell loss induced by tumor cells. Thus, antalarmin was an important factor in preserving immune cells in vivo in the initial phases of ovarian cancer disease.

[2] = tested on: Fas ligand; details: resulting in decreased apoptosis of fetal cell-recognizing T-cells; cited from earlier work
[3] = tested on: implantation sites and live embryos; details: rodents; antalarmin administration; cited from earlier work
[4] = tested on: splenic cytotoxic T-cells; assay: redirected lysis assay of spleen cells co-cultured with tumor ascites inhibitory cells; type: cell-based, mouse; details: antalarmin 0.5 to 1 micromolar; 3 days co-culture in vitro; stimulation with anti-CD3/CD28 monoclonal antibodies
Procedure: To assess the IL-2 responsiveness of T-cells within murine ascites, whole populations of cells were cultured overnight for up to 3 days with IL-2 and then tested for lytic activity using the redirected lysis assay. The assay was similar to the assay described for human cells but an anti-mouse CD3 monoclonal antibody (2C11) was used instead of OKT3. While control splenic cells from non-tumor bearing mice contained cytotoxic T-cell lytic function, the ascites samples had no IL-2 responsive T-cell lytic activity.
Experiments were then performed with antalarmin, a CRH receptor antagonist, to determine if manipulation of CRH activity was involved in the regulation of lytic activity in ovarian carcinoma cells. Spleen cells from normal non-tumor bearing mice were co-cultured in vitro for 3 days with tumor ascites inhibitory cells from the mouse model system. […]
Freshly isolated reproductive tract cells were tested for lytic function by an anti-CD3 mAb (OKT3)-dependent redirected lysis assay (White et al., J. Immunology 158:3017, 1997). […] The chromium released into the supernatant fraction was measured to obtain the percent specific cytotoxicity (% specific lysis), i.e. percent of labeled target cells killed by CD3+ effector cells, using duplicate wells and a titration of 3 effector to target ratios. […]

[5] = tested on: stimulated splenic T-cells (CD3+ and CD8+); assay: FACS analysis of splenic CD3+ and CD8+ cells co-cultured with tumor ascites inhibitory cells; type: cell-based, mouse; details: antalarmin 0.5 to 1 micromolar; co-culture with tumor ascites inhibitory cells

SMILES: CCCCN(CC)c1nc(C)nc2c1c(C)c(C)n2-c1c(C)cc(C)cc1C [antalarmin]
- loss of spleen cells at early stages of ovarian carcinoma disease ([1]; ID8 cells intraperitoneally, spleen cells harvested ten days after challenge, restimulated, yields tested six days later): prevented the loss of spleen cells
- splenic cell yields ([1]; antalarmin added to tumor cells for in vivo priming phase, then non-specific stimulation or no stimulation in restimulation phase): best yields of spleen cells
- fetal cell Fas ligand expression [2]: decrease fetal cell Fas ligand expression
- number of implantation sites and live embryos [3]: decreased the number of implantation sites an live embryos
- cytotoxic T-cell lytic function down-regulated by tumor ascites inhibitory cells [4]: prevented the down-regulation
- loss of CD3-stimulated T-cells mediated by murine ascites inhibitory cells [5]: prevent the loss of CD3− stimulated T-cells
